Legend:
[1] = target: T1, (Homo sapiens, UniProt P00918); assay: Carbonic anhydrase activity, micromethod of Maren (time to lower pH of CO2-saturated carbonate/bicarbonate buffer, phenol red endpoint); type: biochemical; settings: pure enzyme from human erythrocyte; 0°-4° C.; pH 9.9 to 6.8
T1 construct: pure CA11 enzyme from human erythrocyte; from tissue; host or cells: human erythrocytes (purified enzyme)
Description: 1. Carbonic anhydrase activity was assayed according to the micromethod of Maren (J. PharmacoI. Exptl. Therap., 130, 26-29, 1960). All solutions and reagents were maintained at 0°-4° C. The final assay mixture contained 16 mM phenol red, added enzyme and 62.5 mM sodium carbonate/bicarbonate. Its volume was kept constant at 0.8 mL. The time required for the added enzyme to lower the pH of CO2-saturated carbonate/bicarbonate buffer from pH 9.9 to 6.8 was measured using the color change of phenol red as endpoint. T1 is the time recorded for the reaction containing no enzyme. T2 is the time recorded for the reaction containing pure CA11 enzyme from human erythrocyte, or an unknown amount in a sample. Enzyme activities (unit) were calculated using the formula:
Unit/ug=(T1 -T2)(T2 *ug protein used in assay)
IC50 of a carbonic anhydrase inhibitor is the concentration that lowers the enzyme activity to half.

[2] = Cysteine reactivity probe assay (HPLC); set-up: unit not given here; settings: cysteine in phosphate buffer pH 7.4, HPLC; unit not given
Source text: An additional measurement made on some compounds of the invention is the cysteine reactivity. This reactivity measurement gives an indication of the likelihood that a compound will react with cysteine residues in the eye, and so is a measure of the likelihood of development of sensitization in the eye to that compound. […] In general, substituents that are more highly electron withdrawing, such as sulfonyl or carbonyl moieties adjacent to the thiazole ring, increase cysteine reactivity.
2. Cysteine reactivity was measured by the following probe assay procedure. Three stock solutions of: A) the CAI compound to be tested in […] phosphate buffer; B) cysteine ([…]) in 50 mM phosphate buffer at pH 7.4; and C) phosphate buffer (50 mM) at pH 7.4, were prepared. Each solution was deoxygenated by bubbling with N2 for 10-15 min.
Reaction mixtures were prepared in triplicate by mixing equal volumes (1 mL) of two stock solutions as follows:
Hydrolytic or other chemical reactivity was detected by comparison of solutions I and II. Cysteine related reactions were detected by comparison of solutions II and III. All samples were assayed using HPLC under constant conditions and over a short period of time to minimize experimental variations in peak heights not related to CAI concentration differences. Each of the three solutions were assayed in sequence to give three sets of experimental values: Ia, IIa, IIIa, Ib, IIb, IIIb, Ic, IIc, IIIc and each set was compared separately. Mean and standard deviations of the three sets were recorded.

Row | SMILES | IC50 [1] | Cysteine reactivity [2]
1 | NS(=O)(=O)c1ncc(Cl)s1 [5-Chloro-2-thiazole sulfonamide] | 5.9 nM | 0.00002
2 | CCCCCC(=O)c1ncc(S(N)(=O)=O)s1 [2-Hexanoyl-5-thiazole sulfonamide, 2-(1-Hexanoyl)-5-thiazole sulfonamide] | 3.5 nM | 0.00007
3 | CN(C)CCN(C)S(=O)(=O)c1ncc(S(N)(=O)=O)s1 [2-(N-Methyl-N-(dimethylamino)ethyl)sulfamyl-5-thiazole sulfonamide] | 14.5 nM | reactive
4 | CCS(=O)(=O)c1ncc(S(N)(=O)=O)s1 [2-(Ethylsulfonyl)-5-thiazole sulfonamide, 2-Ethylsulfonyl-5-thiazole sulfonamide] | 6.7 nM | reactive
5 | CC(=O)OCCCC(=O)c1cnc(S(N)(=O)=O)s1 [5-(4-acetoxybutanoyl)-2-thiazole sulfonamide] | 8.4 nM | reactive
6 | NS(=O)(=O)c1ncc(Sc2ccccc2)s1 [5-(Phenylthio)-2-thiazole sulfonamide] | 2.7 nM | 0.005
7 | NS(=O)(=O)c1ncc(S(=O)(=O)c2ccccc2)s1 [5-Phenylsulfonyl-2-thiazole sulfonamide, 5-(Phenylsulfonyl)-2-thiazole sulfonamide] | 6 nM | reactive
8 | CCCCOc1ncc(S(N)(=O)=O)s1 [2-(1-Butoxy)-5-thiazole sulfonamide] | 16 nM | < 0.00005
9 | CCSc1ncc(S(N)(=O)=O)s1 [2-(Ethylthio)-5-thiazole sulfonamide, 2-Ethylthio-5-thiazole sulfonamide] | 6.3 nM | < 0.0000024
10 | NS(=O)(=O)c1nc(-c2ccccc2)cs1 [4-Phenyl-2-thiazole sulfonamide] | 20 nM | –
11 | COC(=O)CCSc1cnc(S(N)(=O)=O)s1 [5-(2-Carbomethoxyethyl)thio-2-thiazole sulfonamide] | 9.1 nM | –
12 | NS(=O)(=O)c1cnc(-c2ccccc2)s1 [2-Phenyl-5-thiazole sulfonamide] | 20 nM | –
13 | NS(=O)(=O)c1ncc(Br)s1 [5-Bromo-2-thiazole sulfonamide] | 7.8 nM | –
14 | NS(=O)(=O)c1ncc(SCCO)s1 [5-(2-Hydroxyethyl)thio-2-thiazole sulfonamide] | 6.6 nM | –
15 | CCCCCCc1ncc(S(N)(=O)=O)s1 [2-Hexyl-5-thiazole sulfonamide, 2-(1-Hexyl)-5-thiazole sulfonamide] | 20.6 nM | –
16 | COc1ccc(-c2nc(S(N)(=O)=O)sc2Cl)cc1 [5-Chloro-4-(4-methoxyphenyl)-2-thiazole sulfonamide] | 30 nM | –
17 | NS(=O)(=O)c1cnc([S+]([O-])c2ccccc2)s1 (stereo not shown) [2-Phenylsulfinyl-5-thiazole sulfonamide] | 12.7 nM | reactive
18 | CCSc1cnc(S(N)(=O)=O)s1 [5-(Ethylthio)-2-thiazole sulfonamide] | 4.2 nM | 0.000024
19 | CCOC(=O)c1csc(S(N)(=O)=O)n1 [4-Carboethoxy-2-thiazole sulfonamide, 4-carboethoxy-2-thiazole sulfonamide] | 77 nM | < 0.000005
20 | NS(=O)(=O)c1nc2c(s1)CCCC2 [2-Sulfamyl-4,5,6,7-tetrahydrobenzothiazole] | 15 nM | –
21 | CN(C)CCCC(=O)c1ncc(S(N)(=O)=O)s1 [2-(4-(N,N-dimethyl)aminobutanoyl)-5-thiazole sulfonamide] | 26 nM | –
22 | CCCCCC(O)c1ncc(S(N)(=O)=O)s1 (stereo not shown) [2-(1-Hydroxyhexyl)-5-thiazole sulfonamide] | 10 nM | –
23 | NS(=O)(=O)c1cnc(C(=O)C2CC2)s1 [2-(1-Ketocyclopropyl)-5-thiazole sulfonamide] | 3.5 nM | < 0.000024
24 | CCCCC#Cc1cnc(S(N)(=O)=O)s1 [5-(1-Hexynyl)-2-thiazole sulfonamide] | 5.6 nM | 0.00019

Continued, values first:

Row | IC50 [1] | Cysteine reactivity [2] | SMILES
25 | 6 nM | – | NS(=O)(=O)c1ncc(-c2ccccc2)s1 [5-Phenyl-2-thiazole sulfonamide]
26 | 5.5 nM | N.R. | NS(=O)(=O)c1cnc(Sc2ccccc2)s1 [2-Phenylthio-5-thiazole sulfonamide, 2-Thiophenyl-5-thiazole sulfonamide]
27 | 9.3 nM | reactive | CN1CCN(S(=O)(=O)c2ncc(S(N)(=O)=O)s2)CC1 [4-methyl-1-(2-(5-sulfamylthiazoyl)sulfonyl)piperazine]
28 | 9.3 nM | – | NS(=O)(=O)c1ncc(Cc2ccccc2)s1 [5-Benzyl-2-thiazole sulfonamide]
29 | 84 nM | N.R. | Cc1sc(S(N)(=O)=O)nc1-c1ccccc1 [5-Methyl-4-phenyl-2-thiazole sulfonamide]
30 | 61 nM | N.R. | NS(=O)(=O)c1nccs1 [2-Thiazole sulfonamide]
31 | 11.4 nM | reactive | CC[S+]([O-])c1cnc(S(N)(=O)=O)s1 (stereo not shown) [5-Ethylsufinyl-2-thiazole sulfonamide, 5-Ethylsulfinyl-2-thiazole sulfonamide]
32 | 5.3 nM | – | CC(C)(C)NS(=O)(=O)c1ncc(S(N)(=O)=O)s1 [2-(N-t-butylsulfamyl)-5-thiazole sulfonamide]
33 | 120 nM | 0.00005 | Cc1csc(S(N)(=O)=O)n1 [4-Methyl-2-thiazole sulfonamide]
34 | 5.5 nM | reactive | NS(=O)(=O)c1cnc(S(=O)(=O)c2ccccc2)s1 [2-Phenylsulfonyl-5-thiazole sulfonamide]
35 | 5 nM | reactive | NS(=O)(=O)c1ncc(C(=O)c2ccccc2)s1 [5-Benzoyl-2-thiazole sulfonamide]
36 | 7.7 nM | 0.001 | CCCCC#Cc1ncc(S(N)(=O)=O)s1 [2-(1-Hexynyl)-5-thiazole sulfonamide]
37 | 10.3 nM | – | COCOCC(=O)c1ncc(S(N)(=O)=O)s1 [2-(2-(methoxymethoxy)ethanoyl)-5-thiazole sulfonamide]
38 | 33 nM | – | COc1ccc(-c2csc(S(N)(=O)=O)n2)cc1 [4-(4-Methoxyphenyl)-2-thiazole sulfonamide]

Reference: US5519040A, “Substituted thiazole sulfonamides as antiglaucoma agents” (Allergan, priority 1994, dated 1996)
